The source of these data is US20230099031A1, “BIFUNCTIONAL AGENTS FOR PROTEIN RECRUITMENT AND/OR DEGRADATION” (Orionis Biosciences, Inc., priority 2019, published 2023).

Counter-ions that a name gives are not always drawn.

The IC50 is the midpoint of a concentration-inhibition curve.

For the assay, the target named is T1, CRBN (Homo sapiens, UniProt Q96SW2).
T1 construct: expressed in transfected cells; host or cells: HEK293T
Nature of the assay: Competition Assay: MAPPIT-like, competition with trimethoprim-lenalidomide hybrid ligand for binding to CRBN in HEK293T cells. Type of assay: cell-based. The settings on record: protocol and reagents of Example 1; read-out: IC50 Competition. The text has this: A bait protein (protein A) is expressed as a fusion protein in which it is genetically fused to an engineered intracellular receptor domain of the leptin receptor, which is itself fused to the extracellular domain of the erythropoietin (Epo) receptor. Binding of Epo ligand to the EpoR component results in activation of receptor-associated intracellular JAK2. However, activated JAK2 cannot activate the leptin receptor to trigger STAT3 binding and its phosphorylation because its tyrosine residues, normally phosphorylated by activated JAK2, have been mutated. Reconstitution of a JAK2 phosphorylatable STAT3 docking site is instead created through interaction of a protein B with protein A, whereby protein B is fused to a cytoplasmic domain of the gp130 receptor (which now harbors appropriate tyrosine resides recognized by the activated JAK2 kinase). Thus, physical interaction of protein A with protein B reconstitutes and Epo triggers JAK2-STAT3 signaling pathway activation. Activation of STAT3 can be monitored by introduction of a STAT3-responsive reporter gene, including a luciferase-encoding gene or a gene encoding a fluorescent marker such as GFP or some other type of fluorescent protein (EGF etc.). In this manner, the MAPPIT assay provides a versatile assay to assess such recombinant protein-protein interactions, or compound- or hybrid ligand-induced protein-protein interactions, in intact cells.
Formation of the complex results in activation of a STAT-responsive luciferase reporter gene. That signal is set to 100% luciferase activity. In a separate sample set up, cells are prepared in the same manner but, in addition, co-incubated with a test compound whose interaction with CRBN is investigated. […] Increasing concentrations of test compound are assessed to determine CRBN binding efficiency as determined in this type of ligand competition experiment in living cells. Specificity of signal inhibition is assessed by a parallel experimental set up in which test compound effect is assessed for inhibition of signal generated by a control gp130 fusion protein (CTRL) that directly binds to the DHFR-fusion protein in the absence of hybrid ligand (i.e. a direct interaction of the proteins).
In more detail, HEK293T cells are cultured in Dulbecco's modified Eagle's medium supplemented with 10% fetal calf serum, incubated at 37° C., 8% CO2. […] Data points represent the average luciferase activity of triplicate samples derived from cells treated with leptin+test compound for the REM2 control (CTRL) or cells treated with leptin+hybrid ligand+test compound (CRBN) relative to leptin (CTRL) or leptin+hybrid ligand (CRBN) only treated samples (the signals obtained in absence of added test compound for both cases is set at 100% of luciferase activity on y-axis). Error bars represent standard deviations. Curves are fit using 4-parameter nonlinear regression in […] PRISM software
On to `COc1ccc(Br)c2c1C(=O)N(C1CCC(=O)NC1=O)C2` (stereo not shown) [Compound C74668, 3-(4-bromo-7-methoxy-1-oxo-isoindolin-2-yl)piperidine-2,6-dione], for which the IC50 worked out at 1.89 nM. The value for `Cc1cccc2c1S(=O)(=O)N(C1CCC(=O)NC1=O)C2=O` (stereo not shown) [Compound C75688, 3-(7-methyl-1,1,3-trioxo-1,2-benzothiazol-2-yl)piperidine-2,6-dione] was 14700 nM; that for `NC1Cc2ccccc2C1=O` (stereo not shown) [Compound C75987, 2-aminoindan-1-one; hydrochloride] was 11200 nM.

As for `O=C1CCC(N2Cc3cc(Nc4ncnc5sccc45)ccc3C2=O)C(=O)N1` (stereo not shown) [Compound C80370, 3-[1-oxo-5-(thieno[2,3-d]pyrimidin-4-ylamino)isoindolin-2-yl]piperidine-2,6-dione], the IC50 was found to be 10.9 nM. As for `Cn1ncc2c(Nc3ccc4c(c3)CN(C3CCC(=O)NC3=O)C4=O)ncnc21` (stereo not shown) [Compound C80374, 3-[5-[(1-methylpyrazolo[3,4-d]pyrimidin-4-yl)amino]-1-oxo-isoindolin-2-yl]piperidine-2,6-dione], the IC50 amounted to 16600 nM. As for `Nc1nccc(Nc2ccc3c(c2)CN(C2CCC(=O)NC2=O)C3=O)n1` (stereo not shown) [Compound C80375, 3-[5-[(2-aminopyrimidin-4-yl)amino]-1-oxo-isoindolin-2-yl]piperidine-2,6-dione], the IC50 is 2060 nM.

Consider `Nc1nc(Nc2ccc3c(c2)CN(C2CCC(=O)NC2=O)C3=O)nc2sccc12` (stereo not shown) [Compound C80379, 3-[5-[(4-aminothieno[2,3-d]pyrimidin-2-yl)amino]-1-oxo-isoindolin-2-yl]piperidine-2,6-dione], for which the IC50 is 971 nM. As for `Cn1ncc2c(Nc3ccc4c(c3)C(=O)N(C3CCC(=O)NC3=O)C4)ncnc21` (stereo not shown) [Compound C80383, 3-[6-[(1-methylpyrazolo[3,4-d]pyrimidin-4-yl)amino]-1-oxo-isoindolin-2-yl]piperidine-2,6-dione], the IC50 turned out to be 148 nM. The value for `Cc1cc(Nc2ccc3c(c2)C(=O)N(C2CCC(=O)NC2=O)C3)ncn1` (stereo not shown) [Compound C80384, 3-[6-[(6-methylpyrimidin-4-yl)amino]-1-oxo-isoindolin-2-yl]piperidine-2,6-dione] was 179 nM. `O=C1CCC(N2Cc3ccc(Nc4cnc5ccccc5n4)cc3C2=O)C(=O)N1` (stereo not shown) [Compound C80386, 3-[1-oxo-6-(quinoxalin-2-ylamino)isoindolin-2-yl]piperidine-2,6-dione]: the IC50 was 67.4 nM. Regarding `Cn1ccnc(Nc2ccc3c(c2)C(=O)N(C2CCC(=O)NC2=O)C3)c1=O` (stereo not shown) [Compound C80387, 3-[6-[(4-methyl-3-oxo-pyrazin-2-yl)amino]-1-oxo-isoindolin-2-yl]piperidine-2,6-dione], the IC50 is 54.2 nM. Turning to `N#Cc1ccc(Nc2ccc3c(c2)C(=O)N(C2CCC(=O)NC2=O)C3)nn1` (stereo not shown) [Compound C80389, 6-[[2-(2,6-dioxo-3-piperidyl)-3-oxo-isoindolin-5-yl]amino]pyridazine-3-carbonitrile], the IC50 came to 645 nM. Under `Cc1cc2[nH]cnc(Nc3ccc4c(c3)C(=O)N(C3CCC(=O)NC3=O)C4)c-2n1` (stereo not shown) [Compound C80390, 3-[6-[(6-methylpyrrolo[3,2-d]pyrimidin-4-yl)amino]-1-oxo-isoindolin-2-yl]piperidine-2,6-dione] stands 729 nM; under `O=C1CCC(N2Cc3ccc(NC(=O)c4ccc5ccccc5n4)cc3C2=O)C(=O)N1` (stereo not shown) [Compound C80392, N-[2-(2,6-dioxo-3-piperidyl)-3-oxo-isoindolin-5-yl]quinoline-2-carboxamide], 0.0205 nM; under `O=C1CCC(N2Cc3ccc(NC(=O)c4ccc5cnccc5n4)cc3C2=O)C(=O)N1` (stereo not shown) [Compound C80393, N-[2-(2,6-dioxo-3-piperidyl)-3-oxo-isoindolin-5-yl]-1,6-naphthyridine-2-carboxamide], 7 nM. The value for `O=C1CCC(N2Cc3ccc(NC(=O)C4=C5C=CN=C5N=CC4)cc3C2=O)C(=O)N1` (stereo not shown) [Compound C80395, N-[2-(2,6-dioxo-3-piperidyl)-3-oxo-isoindolin-5-yl]-5H-pyrrolo[2,3-6]pyridine-4-carboxamide] was 880 nM; that for `NC(=O)CNc1ccc2c(c1)C(=O)N(C1CCC(=O)NC1=O)C2` (stereo not shown) [Compound C84961, 2-[[2-(2,6-dioxo-3-piperidyl)-3-oxo-isoindolin-5-yl]amino]acetamide] was 4010 nM; that for `O=C1CCC(N2Cc3ccc(NCC(=O)NC4CC4)cc3C2=O)C(=O)N1` (stereo not shown) [Compound C84963, N-cyclopropyl-2-[[2-(2,6-dioxo-3-piperidyl)-3-oxo-isoindolin-5-yl]amino]acetamide] was 1210 nM. As for `CN(C)C(=O)CNc1ccc2c(c1)C(=O)N(C1CCC(=O)NC1=O)C2` (stereo not shown) [Compound C84964, 2-[[2-(2,6-dioxo-3-piperidyl)-3-oxo-isoindolin-5-yl]amino]-N,N-dimethyl-acetamide], the IC50 stood at 266 nM. The value for `O=C1CCC(N2Cc3ccc(NCC(=O)Nc4ccccc4)cc3C2=O)C(=O)N1` (stereo not shown) [Compound C84965, 2-[[2-(2,6-dioxo-3-piperidyl)-3-oxo-isoindolin-5-yl]amino]-N-phenyl-acetamide] was 200 nM; that for `O=C(CNc1ccc2c(c1)C(=O)N(C1CCC(=O)NC1=O)C2)NCc1ccccc1` (stereo not shown) [Compound C84966, N-benzyl-2-[[2-(2,6-dioxo-3-piperidyl)-3-oxo-isoindolin-5-yl]amino]acetamide] was 599 nM. Under `CC(=O)NCC(=O)Nc1ccc2c(c1)C(=O)N(C1CCC(=O)NC1=O)C2` (stereo not shown) [Compound C84967, 2-acetamido-N-[2-(2,6-dioxo-3-piperidyl)-3-oxo-isoindolin-5-yl]acetamide] stands 3150 nM; under `O=C1CCC(N2Cc3ccc(N4CCNC4=O)cc3C2=O)C(=O)N1` (stereo not shown) [Compound C84971, 3-[1-oxo-6-(2-oxoimidazolidin-1-yl)isoindolin-2-yl]piperidine-2,6-dione], 1310 nM; under `O=C1CCC(N2Cc3ccc(NCC(=O)N4CCc5ccccc5C4)cc3C2=O)C(=O)N1` (stereo not shown) [Compound C95329], 10300 nM. Consider `O=C1CCC(N2Cc3ccc(NCC(=O)N4Cc5ccccc5C4)cc3C2=O)C(=O)N1` (stereo not shown) [Compound C95330, 3-[6-[(2-isoindolin-2-yl-2-oxo-ethyl)amino]-1-oxo-isoindolin-2-yl]piperidine-2,6-dione], for which the IC50 amounted to 30 nM. Turning to `CN(Cc1cnn(C)c1)C(=O)CNc1ccc2c(c1)C(=O)N(C1CCC(=O)NC1=O)C2` (stereo not shown) [Compound C95333, 2-[[2-(2,6-dioxo-3-piperidyl)-3-oxo-isoindolin-5-yl]amino]-N-methyl-N-[(1-methylpyrazol-4-yl)methyl]acetamide], the IC50 came to 591 nM. Under `CC1Cc2ccccc2N1C(=O)CNc1ccc2c(c1)C(=O)N(C1CCC(=O)NC1=O)C2` (stereo not shown) [Compound C95336, 3-[6-[[2-(2-methylindolin-1-yl)-2-oxo-ethyl]amino]-1-oxo-isoindolin-2-yl]piperidine-2,6-dione] stands 11900 nM. Under `CN(CC1CC1)C(=O)CNc1ccc2c(c1)C(=O)N(C1CCC(=O)NC1=O)C2` (stereo not shown) [Compound C95338, N-(cyclopropylmethyl)-2-[[2-(2,6-dioxo-3-piperidyl)-3-oxo-isoindolin-5-yl]amino]-N-methyl-acetamide] stands 32.1 nM. Under `C=CCC1c2ccccc2C(=O)N1C1CCC(=O)NC1=O` (stereo not shown) [Compound C96413, 3-(1-allyl-3-oxo-isoindolin-2-yl)piperidine-2,6-dione] stands 10400 nM; under `CN(C)c1ccc2c(c1)C(=O)N(C1CCC(=O)NC1=O)C2` (stereo not shown) [Compound C96622, 3-[6-(dimethylamino)-1-oxo-isoindolin-2-yl]piperidine-2,6-dione], 214 nM; under `O=C1CCC(Nc2ncc3ccccc3n2)C(=O)N1` (stereo not shown) [Compound C97402, 3-(quinazolin-2-ylamino)piperidine-2,6-dione], 6320 nM.

Consider `CC(C)(C)OC(=O)CC1c2ccccc2C(=O)N1C1CCC(=O)NC1=O` (stereo not shown) [Compound C98053, t-butyl 2-[2-(2,6-dioxo-3-piperidyl)-3-oxo-isoindolin-1-yl]acetate], for which the IC50 stood at 5770 nM. With `O=C1CC=CC(C(=O)NC2CCC(=O)NC2=O)=N1` (stereo not shown) [Compound C98696, N-(2,6-dioxo-3-piperidyl)-2-oxo-3H-pyridine-6-carboxamide], the IC50 was 9340 nM. The value for `O=C1CCC(N2Cc3cccc([N+](=O)[O-])c3C2=O)C(=O)N1` (stereo not shown) [Compound C99884, 3-(7-nitro-1-oxo-isoindolin-2-yl)piperidine-2,6-dione] was 1370 nM.
